Test results: patent publication US20250109140A1, “5-[5-(PIPERIDIN-4-YL)THIENO[3,2-C]PYRAZOL-2-YL]INDAZOLE DERIVATIVES AND RELATED COMPOUNDS AS MODULATORS FOR SPLICING NUCLEIC ACIDS AND FOR THE TREATMENT OF PROLIFERATIVE DISEASES” (REMIX THERAPUTICS INC., priority 2022, published 2025)
Like-named read-outs stand apart in the source and are kept apart here.

Assays:
MYB mRNA = test: Splicing RT-qPCR assay, MYB canonical (CJ) and alternative (AJ) junction mRNA; assay type: cell-based; details: Homo sapiens; for EC50: AC50 = 50% response in AJ mRNA increase
Method in brief: (§1)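 Junction-specific RT-qPCR read-out: CJ marks canonical transcript, AJ marks alternative-exon inclusion, each normalized to GAPDH, GUSB or PPIA. Cells (A673 or K562) were dosed for 24 h with compound up to 10 uM final in 11 3-fold steps. RQ from 2^(−ΔΔCt) against DMSO became percentage response.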

SMN2 mRNA = test: Splicing RT-qPCR gene panel, SMN2 canonical junction (CJ) mRNA; assay type: cell-based; details: Homo sapiens; Table 8; larger gene panel, decrease in CJ mRNA levels
Method in brief: as §1

HTT mRNA = test: Splicing RT-qPCR assay, HTT canonical (CJ) and alternative (AJ) junction mRNA; assay type: cell-based; details: Homo sapiens; for EC50: AC50 = 50% response in AJ mRNA increase
Method in brief: as §1

HiBiT-tagged MYB protein = test: HiBiT protein abundance assay, MYB (K562 HiBiT knock-in cells); assay type: cell-based, human; details: 24 hours treatment
Method in brief: (§2)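 K562 cells carrying endogenous HiBiT-tagged targets were treated 24 h at 37 °C with 10-point 3-fold dilutions from 10 µM final (≤0.25% DMSO). Abundance read by lytic HiBiT luminescence, normalized to DMSO and unmodified-K562 controls; IC50 is the 4-parameter-fit concentration giving 50% of untreated signal.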

[1] = test system: K562 (human chronic myelogenous leukemia) cells; test: Cell viability, Cell Titer Glo 2.0 assay, K562 cells; assay type: cell-based; details: 72 hours
Method in brief: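 K562 cells seeded at 500 cells/well in IMDM + 10% FBS; compounds serially diluted in DMSO, then 1:100 in medium (final DMSO 0.1%). Incubated 72 h at 37° C, 5% CO2; viability read by Cell Titer Glo 2.0 luminescence against medium-only blank.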

Target C mRNA = test: Splicing RT-qPCR gene panel, Target C canonical junction (CJ) mRNA; assay type: cell-based; details: Homo sapiens; Table 8; larger gene panel, decrease in CJ mRNA levels
Method in brief: as §1

Target C = test: HiBiT protein abundance assay, Target C (K562 HiBiT knock-in cells); assay type: cell-based, human; details: 24 hours treatment
Method in brief: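 K562 HiBiT knock-in cells (10000/well) were treated 24 h at 37 °C with a 10-point 3-fold dilution series, top final concentration […], DMSO ≤0.25%. Target abundance was read by lytic HiBiT luminescence and normalized to unmodified K562 and DMSO controls. A four-parameter fit gave the concentration giving 50% of untreated abundance.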

HiBiT-tagged HTT protein = test: HiBiT protein abundance assay, HTT (K562 HiBiT knock-in cells); assay type: cell-based, human; details: 24 hours treatment
Method in brief: as §2

[2] = Table 7, RT-qPCR, A673 or K562 cells, 24 hours treatment
[3] = Table 7, IC50 = 50% response in CJ mRNA decrease, RT-qPCR, A673 or K562 cells, 24 hours treatment, read-out: MYB CJ
[4] = Table 8, larger gene panel, decrease in CJ mRNA levels, read-out: MYB CJ IC50
[5] = Table 7, IC50 = 50% response in CJ mRNA decrease, RT-qPCR, A673 or K562 cells, 24 hours treatment, read-out: HTT CJ
[6] = Table 8, larger gene panel, decrease in CJ mRNA levels, read-out: HTT CJ IC50

| Compound | EC50 (MYB mRNA; [2]) [µM] | IC50 (MYB mRNA; [3]) [µM] | IC50 (MYB mRNA; [4]) [µM] | IC50 (SMN2 mRNA) [µM] | EC50 (HTT mRNA; [2]) [µM] | IC50 (HTT mRNA; [5]) [µM] | IC50 (HTT mRNA; [6]) [µM] | IC50 (HiBiT-tagged MYB protein) [µM] | IC50 [1] [µM] | IC50 (Target C mRNA) [µM] | IC50 (Target C) [µM] | IC50 (HiBiT-tagged HTT protein) [µM] |
| --- | --- | --- | --- | --- | --- | --- | --- | --- | --- | --- | --- | --- |
| Cc1cn2cc(-n3cc4sc(C5CCNCC5)cc4n3)nc2c(C)n1 [Compound 181] | > 10 | > 10 | > 10 | 1 to 10 | 1 to 10 | 1 to 10 | 1 to 10 | 1 to 10 | 1 to 10 | > 10 | > 10 | 1 to 10 |
| Cn1cc2cc(-c3cc4cn([C@H]5CCNC[C@H]5F)nc4s3)cc(F)c2n1 [Compound 182] | 1 to 10 | 0.1 to 1 | 1 to 10 | < 0.1 | 0.1 to 1 | < 0.1 | 0.1 to 1 | 0.1 to 1 | 0.1 to 1 | 0.1 to 1 | 0.1 to 1 | < 0.1 |
| Cn1cc2cc(-c3cc4cn([C@@H]5CCNC[C@@H]5F)nc4s3)cc(F)c2n1 [Compound 183] | 1 to 10 | 1 to 10 | 1 to 10 | 0.1 to 1 | 1 to 10 | 0.1 to 1 | 1 to 10 | 0.1 to 1 | 0.1 to 1 | 1 to 10 | < 0.1 | < 0.1 |
| Cn1cc2cc(-c3cc4cn(C5CNC5)nc4s3)cc(F)c2n1 [Compound 184] | 1 to 10 | 1 to 10 | 1 to 10 | 0.1 to 1 | 1 to 10 | 1 to 10 | 1 to 10 | 1 to 10 | 1 to 10 | > 10 | > 10 | 1 to 10 |
| Cn1cc2cc(-c3cc4cn([C@@H]5CCNC[C@H]5F)nc4s3)cc(F)c2n1 [Compound 187] | 0.1 to 1 | 0.1 to 1 | 0.1 to 1 | < 0.1 | < 0.1 | < 0.1 | < 0.1 | 0.1 to 1 | 1 to 10 | 0.1 to 1 | 0.1 to 1 | < 0.1 |
| Cc1cn2nc(-n3cc4sc(N5CC6(CN(C)C6)C5)cc4n3)cc(C)c2n1 [Compound 188, 2-(2-{2,8-dimethylimidazo[1,2-b]pyridazin-6-yl}thieno [3,2-c]pyrazol-5-yl)-6-methyl-2,6-diazaspiro [3.3]heptane] | 1 to 10 | 1 to 10 | 1 to 10 | 0.1 to 1 | 1 to 10 | 0.1 to 1 | 1 to 10 | 1 to 10 | 1 to 10 | 1 to 10 | 1 to 10 | 1 to 10 |
| Cc1cn2nc(-n3cc4sc(N5CCC(NC(C)(C)C)C5)cc4n3)cc(C)c2n1 (stereo not drawn) [Compound 189, N-tert-butyl-1-(2-{2,8-dimethylimidazo[1,2-b]pyridazin-6-yl}thieno[3,2-c]pyrazol-5-yl) pyrrolidin-3-amine] | > 10 | > 10 | > 10 | 1 to 10 | > 10 | > 10 | > 10 | > 10 | 1 to 10 | > 10 | > 10 | > 10 |
| Cn1cc2cc(-c3cc4cn([C@H]5CCNC[C@@H]5F)nc4s3)cc(F)c2n1 [Compound 190] | 0.1 to 1 | 0.1 to 1 | 0.1 to 1 | < 0.1 | 0.1 to 1 | < 0.1 | 0.1 to 1 | 1 to 10 | 1 to 10 | 0.1 to 1 | 1 to 10 | 0.1 to 1 |
| Cn1cc2cc(-c3cc4cn(C5CCNCC5)nc4s3)ccc2n1 [Compound 207] | 1 to 10 | 1 to 10 | 1 to 10 | < 0.1 | 0.1 to 1 | 0.1 to 1 | 0.1 to 1 | 1 to 10 | 1 to 10 | 1 to 10 | 0.1 to 1 | < 0.1 |
